Data set [1] deals with SK-CO-1 and SW620 (KRAS-dependent) xenografted tumors. The data set is described as follows: Subcutaneous xenografted tumors, KRAS-dependent. It is filed as in vivo, NOD/SCID mice. The following applies: 15 mg/kg daily intraperitoneal, 6 days of treatment. As for the experimental part: (C) TAK1 inhibition in mice with xenografted human tumors derived from the HCT8/SW837 (KRAS-independent) and SK-CO-1/SW620 (KRAS-dependent) cell lines. Cells expressing firefly luciferase were injected subcutaneously into the flanks of […]. Tumors are shown as imaged by IVIS detection of luminescence counts (in photons/sec) following 14 days of tumor growth followed by 6 days of treatment with either 15 mg/kg 5z-7-oxozeaenol or vehicle ([…] in arachis oil), IP delivery q.d. Quantitation of tumor volume (mm^3) is plotted on the right. Tumor volume data are represented as the mean of 4 tumors in 2 mice for each group+/−SEM.
To validate the efficacy of 5Z-7-oxozeaenol in vivo, subcutaneous xenografted tumors were generated in NOD/SCID mice using four representative KRAS mutant cell lines: HCT8 and SW837 (KRAS-independent), and SK-CO-1 and SW620 (KRAS-dependent). Human colorectal cancer tumor cells were trypsinized and resuspended as single cell suspensions at 3×10^7 cells per ml in PBS. 100 μL (3×10^6 cells total) of this suspension were injected into opposite left and right flanks of NOD/SCID mice. All mice were housed in a pathogen-free environment. Tumor size was monitored daily and once tumor volume had reached approximately 200 mm^3, treatment with 5Z-7-oxozeaenol was initiated (7 to 14 days post-implantation). Mice were injected daily with 15 mg/kg 5Z-7-oxozeaenol. […]

A short description of data set [2]: Toxicity in treated xenograft mice. It counts as in vivo, NOD/SCID mice. The note with it: 15 mg/kg daily intraperitoneal. As for the experimental part: To validate the efficacy of 5Z-7-oxozeaenol in vivo, subcutaneous xenografted tumors were generated in NOD/SCID mice using four representative KRAS mutant cell lines: HCT8 and SW837 (KRAS-independent), and SK-CO-1 and SW620 (KRAS-dependent). Human colorectal cancer tumor cells were trypsinized and resuspended as single cell suspensions at 3×10^7 cells per ml in PBS. 100 μL (3×10^6 cells total) of this suspension were injected into opposite left and right flanks of NOD/SCID mice. All mice were housed in a pathogen-free environment. Tumor size was monitored daily and once tumor volume had reached approximately 200 mm^3, treatment with 5Z-7-oxozeaenol was initiated (7 to 14 days post-implantation). Mice were injected daily with 15 mg/kg 5Z-7-oxozeaenol. The drug was resuspended as a 25 mg/ml stock in DMSO. This was further diluted 10-fold in Arachis Oil (Sigma Inc.) to yield a 2.5 mg/ml stock in 10% DMSO. Approximately 120 μl of this stock was delivered to 20 g mice intraperitoneally. Alternatively, 10% DMSO in Arachis Oil was delivered as a vehicle control.
Palpable tumors were evident two weeks post-implantation, at which time mice were treated with either daily intraperitoneal 15 mg/kg of 5Z-7-oxozeaenol or vehicle alone (Rawlins et al., 1999).

The next data set deals with Wnt target gene Axin 2. The experiment in a line: Axin 2 protein expression, western blot. It counts as cell-based, human. The procedure:
(C) Protein expression levels of the Wnt target gene Axin 2 following treatment of cells with the indicated concentrations. GAPDH serves as a loading control.
In contrast, KRAS depletion had no effect in one KRAS-independent line (SW1463) and increased TOP-FLASH activity in another (LS174T). […] To define the effect of TAK1 signaling on a physiological Wnt target gene, protein expression levels of the endogenous Axin 2 gene (Lustig et al., 2002) were measured following treatment with 5Z-7-oxozeaenol. […] Thus, both KRAS and TAK1 suppression selectively suppress β-catenin-mediated transcription and Wnt target gene expression in KRAS-dependent cells.
The following antibodies were used for western blotting in the above examples: KRAS OP-24, Pan-Ras OP-40 (Calbiochem); PARP (BD Pharmigen, 4C10-5); BMP-7 (Abcam); phospho-ERK, Axin2, phospho Smad1 and total Smad1/5/8, phospho- and total AMPK, phospho- and total AKT, cleaved Caspase-3 (Cell Signaling); GAPDH (Chemicon); E-Cadherin, beta-catenin (BD Pharmigen) Syk, TAK1, total ERK1 (Santa Cruz). For secreted BMP-7 levels, 1×10^6 HT29 cells stably expressing ER-KRAS(12V) were plated in 10 cm dishes. 24 h post-plating, 10 ml serum-free DME/F12 medium (Gibco) was added. Conditioned media was collected 24 h post-induction of ER-KRAS(12V) with 4-HT and concentrated to […], using AMICON® Ultra-4 Centrifugal Filter Units with 3 kDa membranes. […]
(In western blotting, separated proteins are transferred to a membrane and probed.)

Data set [3] concerns HT29 cells expressing mutant NRAS. The experiment in a line: Sensitivity of HT29 cells expressing mutant NRAS. It counts as cell-based, human. The following applies: HT29 cells with ectopic mutant NRAS. The source says: (D) Forced overexpression of epitope-tagged oncogenic G12V mutated RAS protein isoforms in HT29 cells and sensitivity to TAK1 pharmacological inhibition with 5Z-7-oxozeaenol. Expression levels of exogenous and endogenous Ras proteins are shown by immunoblotting with a pan-ras monoclonal antibody. NRAS/KRAS4B are HA-tagged and KRAS4A is V5-tagged.
These cell lines are insensitive to 5Z-7-oxozeaenol.

The test system of data set [4] is HT29 cells expressing BMPR1A-CA (Q233D). The experiment in a line: Sensitivity of HT29 cells expressing BMPR1A-CA. It counts as cell-based, human. The procedure: (E) Introduction of a V5-tagged constitutively activated (CA) mutant of the BMP receptor, BMPR1A (Q233D) or control vector in HT29 cells and effects on 5Z-7-oxozeaenol sensitivity in terms of IC50 values.
To determine whether TAK1-independent cells could be driven toward TAK1 dependency by enhanced KRAS/Wnt signaling, a series of reconstitution experiments was performed. HT29, SW620 or SKCO1 cells were infected with recombinant lentiviruses encoding either BMPR1A-CA and CTNNB1-CA or vector control (containing the ccDB gene). For BMPR1A-CA stable expression, cells were selected in 5 μg/mlBlasticidin for 7 days and pooled clones were established. Stable expression was verified using the V5 epitope tag on the BMPR1A transgene product. For CTNNB1-CA, the pWPI recombinant lentiviruses encode GFP driven by IRES. Thus, stable cell clones were obtaining by FACS live cell sorting to obtain the top 10% of GFP expressing cells. The SW620-CTNNB1-CA stable cell clones were passaged 1:5 every 2 days and assayed for KRAS dependency after the fifth passage.
To further define the role of BMP signaling in TAK1 dependency, a constitutively-activated (CA) variant (Q233D) of BMPR1A (Zou et al., 1997) was ectopically expressed in HT29 cells. […] This was accompanied by dose-dependent decreases in Axin 2 and phosphorylated Smad2 levels. […]

The record followed here is patent US20140243403A1, “TREATING COLORECTAL, PANCREATIC, AND LUNG CANCER” (The General Hospital Corporation, priority 2011, published 2014).

The structures appear in SMILES notation. pIC50: −log10 of the molar value.

Regarding `COc1cc(O)c2c(c1)/C=C/C[C@H](O)[C@H](O)C(=O)/C=C\C[C@H](C)OC2=O` [5Z-7-oxozeaenol], the “tumor response (imaging, tumor volume)” value in data set [1] is on record as “remarkable regression”. Also, the “toxicity in treated mice” value in data set [2] is “No overt toxicity”. The “Axin 2 expression” value in the data set on Wnt target gene Axin 2 (KRAS-dependent cells) was “dose-dependent reduction”. For the same compound, the “Axin 2 expression, dose-dependent reduction” value in the data set on Wnt target gene Axin 2 (KRAS-independent cells) is listed as “not”. Further, in data set [3], the “change in sensitivity to 5Z-7-oxozeaenol” value is recorded as “slightly increased resistance”. In addition, the pIC50 (in general, −log10 of the IC50, conventionally taken in molar units) in data set [4] was 5.96.
